System: 565232-114-T-J1-PDC complex spheroid viability
Assay: Anticancer human tumor 565232-114-T-J1-PDC patient-derived bladder carcinoma cell line growth inhibition [CLK]
Details: for IC50: curve of first compound; for viability, T/C: stronger effect = lower value
Procedure, shortened: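 Multi-cell-type spheroids combined patient-derived tumor cells with HUVEC endothelial cells and human mesenchymal stem cells. Paired agents were dosed in half-log steps down from about clinical Cmax, or from 10 microM where Cmax was unknown.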

[1] = second compound 0.0316 µM, first compound 0.0316 µM
[2] = second compound 0.0316 µM, first compound 0.1 µM
[3] = second compound 0.0316 µM, first compound 0.316 µM
[4] = second compound 0.0316 µM, first compound 1 µM
[5] = second compound 0.0316 µM, first compound 3.16 µM
[6] = second compound 0.0316 µM, first compound 10 µM
[7] = second compound 0.1 µM, first compound 0.0316 µM
[8] = second compound 0.1 µM, first compound 0.1 µM
[9] = second compound 0.1 µM, first compound 0.316 µM
[10] = second compound 0.1 µM, first compound 1 µM
[11] = second compound 0.1 µM, first compound 3.16 µM
[12] = second compound 0.1 µM, first compound 10 µM
[13] = second compound 0.316 µM, first compound 0.0316 µM
[14] = second compound 0.316 µM, first compound 0.1 µM
[15] = second compound 0.316 µM, first compound 0.316 µM
[16] = second compound 0.316 µM, first compound 1 µM
[17] = second compound 0.316 µM, first compound 3.16 µM
[18] = second compound 0.316 µM, first compound 10 µM
[19] = second compound 1 µM, first compound 0.0316 µM
[20] = second compound 1 µM, first compound 0.1 µM
[21] = second compound 1 µM, first compound 0.316 µM
[22] = second compound 1 µM, first compound 1 µM
[23] = second compound 1 µM, first compound 3.16 µM
[24] = second compound 1 µM, first compound 10 µM
[25] = second compound 3.16 µM, first compound 0.0316 µM
[26] = second compound 3.16 µM, first compound 0.1 µM
[27] = second compound 3.16 µM, first compound 0.316 µM
[28] = second compound 3.16 µM, first compound 1 µM
[29] = second compound 3.16 µM, first compound 3.16 µM
[30] = second compound 3.16 µM, first compound 10 µM
[31] = second compound 10 µM, first compound 0.0316 µM
[32] = second compound 10 µM, first compound 0.1 µM
[33] = second compound 10 µM, first compound 0.316 µM
[34] = second compound 10 µM, first compound 1 µM
[35] = second compound 10 µM, first compound 3.16 µM
[36] = second compound 10 µM, first compound 10 µM
[37] = second compound 0.0316 µM, first compound 0.00316 µM
[38] = second compound 0.0316 µM, first compound 0.01 µM
[39] = second compound 0.1 µM, first compound 0.00316 µM
[40] = second compound 0.1 µM, first compound 0.01 µM
[41] = second compound 0.316 µM, first compound 0.00316 µM
[42] = second compound 0.316 µM, first compound 0.01 µM
[43] = second compound 1 µM, first compound 0.00316 µM
[44] = second compound 1 µM, first compound 0.01 µM
[45] = second compound 3.16 µM, first compound 0.00316 µM
[46] = second compound 3.16 µM, first compound 0.01 µM
[47] = second compound 10 µM, first compound 0.00316 µM
[48] = second compound 10 µM, first compound 0.01 µM
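Further: spheroids exposed to compounds for 7 days before readout.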
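Wherever viability, T/C is given: 100% = DMSO vehicle wells with luminescence normalized to vehicle control.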

C#Cc1c(F)ccc2cc(O)cc(-c3ncc4c(N5CC6CCC(C5)N6)nc(OCC56CCCN5CC(F)C6)nc4c3F)c12 (stereo not given) + CNC(=O)c1ccc(Nc2nc(OC3CCCC3)c3c(-c4ccc5nc(C)oc5c4)c[nH]c3n2)c(OC)c1
IC50 (second compound 0.0316 µM): > 10000 nM
IC50 (second compound 0.1 µM): < 31.6 nM
IC50 (second compound 0.316 µM): < 31.6 nM
IC50 (second compound 1 µM): < 31.6 nM
IC50 (second compound 3.16 µM): < 31.6 nM
IC50 (second compound 10 µM): < 31.6 nM
viability, T/C [1]: 78.9%
viability, T/C [2]: 67.7%
viability, T/C [3]: 95.5%
viability, T/C [4]: 75.6%
viability, T/C [5]: 119%
viability, T/C [6]: 89.6%
viability, T/C [7]: 49.6%
viability, T/C [8]: 46.9%
viability, T/C [9]: 45.9%
viability, T/C [10]: 53.2%
viability, T/C [11]: 51.5%
viability, T/C [12]: 44.2%
viability, T/C [13]: 33.3%
viability, T/C [14]: 31.7%
viability, T/C [15]: 28.9%
viability, T/C [16]: 28.1%
viability, T/C [17]: 31.5%
viability, T/C [18]: 23%
viability, T/C [19]: 25.8%
viability, T/C [20]: 25.6%
viability, T/C [21]: 22.3%
viability, T/C [22]: 17.4%
viability, T/C [23]: 21.5%
viability, T/C [24]: 17.3%
viability, T/C [25]: 18.6%
viability, T/C [26]: 16.2%
viability, T/C [27]: 18.8%
viability, T/C [28]: 16.4%
viability, T/C [29]: 16.4%
viability, T/C [30]: 11.6%
viability, T/C [31]: 18.6%
viability, T/C [32]: 17.3%
viability, T/C [33]: 12.3%
viability, T/C [34]: 14.8%
viability, T/C [35]: 19.7%
viability, T/C [36]: 9.9%

CC(CO)NC(=O)c1cc(-c2ccc(Cl)cc2)nn(-c2cnn(C)c2)c1=O (stereo not given) + CNC(=O)c1ccc(Nc2nc(OC3CCCC3)c3c(-c4ccc5nc(C)oc5c4)c[nH]c3n2)c(OC)c1
IC50 (second compound 0.0316 µM): > 10000 nM
IC50 (second compound 0.1 µM): 131 nM
IC50 (second compound 0.316 µM): < 31.6 nM
IC50 (second compound 1 µM): < 31.6 nM
IC50 (second compound 3.16 µM): < 31.6 nM
IC50 (second compound 10 µM): < 31.6 nM
viability, T/C [1]: 85.2%
viability, T/C [2]: 74.3%
viability, T/C [3]: 79.8%
viability, T/C [4]: 83%
viability, T/C [5]: 97.6%
viability, T/C [6]: 117%
viability, T/C [7]: 50.5%
viability, T/C [8]: 51.3%
viability, T/C [9]: 48.8%
viability, T/C [10]: 47.1%
viability, T/C [11]: 51%
viability, T/C [12]: 45.4%
viability, T/C [13]: 35%
viability, T/C [14]: 26.5%
viability, T/C [15]: 32.5%
viability, T/C [16]: 36.1%
viability, T/C [17]: 37.7%
viability, T/C [18]: 34%
viability, T/C [19]: 22.1%
viability, T/C [20]: 23.6%
viability, T/C [21]: 23.7%
viability, T/C [22]: 21.1%
viability, T/C [23]: 23.5%
viability, T/C [24]: 22.5%
viability, T/C [25]: 17.5%
viability, T/C [26]: 18.2%
viability, T/C [27]: 19.7%
viability, T/C [28]: 18.2%
viability, T/C [29]: 22%
viability, T/C [30]: 19%
viability, T/C [31]: 19.9%
viability, T/C [32]: 18.1%
viability, T/C [33]: 18.4%
viability, T/C [34]: 16.2%
viability, T/C [35]: 18.4%
viability, T/C [36]: 17.7%

CC(Nc1ccc2c(c1)OCCn1cc(N3C(=O)OCC3C(F)F)nc1-2)C(N)=O (stereo not given) + CNC(=O)c1ccc(Nc2nc(OC3CCCC3)c3c(-c4ccc5nc(C)oc5c4)c[nH]c3n2)c(OC)c1
IC50 (second compound 0.0316 µM): > 10000 nM
IC50 (second compound 0.1 µM): < 31.6 nM
IC50 (second compound 0.316 µM): < 31.6 nM
IC50 (second compound 1 µM): < 31.6 nM
IC50 (second compound 3.16 µM): < 31.6 nM
IC50 (second compound 10 µM): < 31.6 nM
viability, T/C [1]: 87.5%
viability, T/C [2]: 93.6%
viability, T/C [3]: 88.1%
viability, T/C [4]: 100%
viability, T/C [5]: 101%
viability, T/C [6]: 101%
viability, T/C [7]: 35.1%
viability, T/C [8]: 34.1%
viability, T/C [9]: 37.4%
viability, T/C [10]: 39.9%
viability, T/C [11]: 33.6%
viability, T/C [12]: 29.2%
viability, T/C [13]: 21.4%
viability, T/C [14]: 20.2%
viability, T/C [15]: 23.8%
viability, T/C [16]: 23.7%
viability, T/C [17]: 19.9%
viability, T/C [18]: 18%
viability, T/C [19]: 15.5%
viability, T/C [20]: 15.3%
viability, T/C [21]: 12.6%
viability, T/C [22]: 14.9%
viability, T/C [23]: 13.1%
viability, T/C [24]: 9.75%
viability, T/C [25]: 9.27%
viability, T/C [26]: 10.4%
viability, T/C [27]: 9.44%
viability, T/C [28]: 10.1%
viability, T/C [29]: 6.97%
viability, T/C [30]: 10.2%
viability, T/C [31]: 12.9%
viability, T/C [32]: 10.9%
viability, T/C [33]: 13.1%
viability, T/C [34]: 9.16%
viability, T/C [35]: 7.38%
viability, T/C [36]: 5.93%

CCN1CCN(Cc2ccc(Nc3ncc(F)c(-c4cc(F)c5nc(C)n(C(C)C)c5c4)n3)nc2)CC1 + CNC(=O)c1ccc(Nc2nc(OC3CCCC3)c3c(-c4ccc5nc(C)oc5c4)c[nH]c3n2)c(OC)c1
IC50 (second compound 0.0316 µM): > 1000 nM
IC50 (second compound 0.1 µM): > 1000 nM
IC50 (second compound 0.316 µM): < 3.16 nM
IC50 (second compound 1 µM): < 3.16 nM
IC50 (second compound 3.16 µM): < 3.16 nM
IC50 (second compound 10 µM): < 3.16 nM
viability, T/C [37]: 84.4%
viability, T/C [38]: 81.1%
viability, T/C [1]: 84.7%
viability, T/C [2]: 82.6%
viability, T/C [3]: 119%
viability, T/C [4]: 129%
viability, T/C [39]: 53.9%
viability, T/C [40]: 56.5%
viability, T/C [7]: 48.7%
viability, T/C [8]: 64%
viability, T/C [9]: 58.3%
viability, T/C [10]: 66.7%
viability, T/C [41]: 32.8%
viability, T/C [42]: 40.6%
viability, T/C [13]: 32.6%
viability, T/C [14]: 38.2%
viability, T/C [15]: 42.3%
viability, T/C [16]: 46.4%
viability, T/C [43]: 23.9%
viability, T/C [44]: 26.5%
viability, T/C [19]: 24.7%
viability, T/C [20]: 34.2%
viability, T/C [21]: 35.8%
viability, T/C [22]: 39.2%
viability, T/C [45]: 18.1%
viability, T/C [46]: 19%
viability, T/C [25]: 25%
viability, T/C [26]: 22.9%
viability, T/C [27]: 27.2%
viability, T/C [28]: 37%
viability, T/C [47]: 19.9%
viability, T/C [48]: 18.4%
viability, T/C [31]: 21.7%
viability, T/C [32]: 22.5%
viability, T/C [33]: 31.2%
viability, T/C [34]: 27.1%

COc1c(OCCCN2CCOCC2)ccc2c3n(c(=NC(=O)c4cnc(N)nc4)nc12)CCN3 + CNC(=O)c1ccc(Nc2nc(OC3CCCC3)c3c(-c4ccc5nc(C)oc5c4)c[nH]c3n2)c(OC)c1
IC50 (second compound 0.0316 µM): > 1000 nM
IC50 (second compound 0.1 µM): < 3.16 nM
IC50 (second compound 0.316 µM): < 3.16 nM
IC50 (second compound 1 µM): < 3.16 nM
IC50 (second compound 3.16 µM): < 3.16 nM
IC50 (second compound 10 µM): < 3.16 nM
viability, T/C [37]: 106%
viability, T/C [38]: 81.5%
viability, T/C [1]: 84.9%
viability, T/C [2]: 94.5%
viability, T/C [3]: 118%
viability, T/C [4]: 68.7%
viability, T/C [39]: 39.5%
viability, T/C [40]: 38.5%
viability, T/C [7]: 29.8%
viability, T/C [8]: 31.7%
viability, T/C [9]: 22.6%
viability, T/C [10]: 20.8%
viability, T/C [41]: 26.9%
viability, T/C [42]: 24.1%
viability, T/C [13]: 22.4%
viability, T/C [14]: 18.9%
viability, T/C [15]: 15.8%
viability, T/C [16]: 9.27%
viability, T/C [43]: 15.4%
viability, T/C [44]: 16.9%
viability, T/C [19]: 14.5%
viability, T/C [20]: 8.97%
viability, T/C [21]: 5.69%
viability, T/C [22]: 3.61%
viability, T/C [45]: 15.6%
viability, T/C [46]: 9.18%
viability, T/C [25]: 8.92%
viability, T/C [26]: 4.99%
viability, T/C [27]: 5.15%
viability, T/C [28]: 1.71%
viability, T/C [47]: 12.3%
viability, T/C [48]: 10.3%
viability, T/C [31]: 5.74%
viability, T/C [32]: 5.45%
viability, T/C [33]: 3.3%
viability, T/C [34]: 1.73%

— PubChem BioAssay AID2060612 (Molecular Pharmacology Branch, DTP, NCI, 2025)
